Assay results reported in patent US11634418B2, “Amino acid compounds and methods of use” (Pliant Therapeutics, Inc., priority 2016, dated 2023).

Target: recombinant human integrin αvβ6 (Homo sapiens (Human), UniProt P06756+P18564)
Experiment: Solid Phase Integrin αvβ6 Binding Assay
Details: inhibition of recombinant TGFβ1 LAP binding to coated integrin; IC50 given as range
Description: Microplates were coated with recombinant human integrin αvβ6 (2 ug/ml) in PBS (100 ul/well 25° C. overnight). The coating solution was removed, washed with wash buffer (0.05% Tween 20; 0.5 mM MnCl2; in 1×TBS). Plate was blocked with 200 ul/well of Block Buffer (1% BSA; 5% sucrose; 0.5 mM MnCl2; in 1×TBS) at 37° C. for 2 h. Dilutions of testing compounds and recombinant TGFβ1 LAP (0.67 ug/ml) in binding buffer (0.05% BSA; 2.5% sucrose; 0.5 mM MnCl2; in 1×TBS) were added. The plate was incubated for 2 hours at 25° C., washed, and incubated for 1 hour with Biotin-Anti-hLAP. Bound antibody was detected by peroxidase-conjugated streptavidin. The IC50 values for testing compounds were calculated by a four-parameter logistic regression.

Chain of recombinant human integrin αvβ6 (P06756 31-992): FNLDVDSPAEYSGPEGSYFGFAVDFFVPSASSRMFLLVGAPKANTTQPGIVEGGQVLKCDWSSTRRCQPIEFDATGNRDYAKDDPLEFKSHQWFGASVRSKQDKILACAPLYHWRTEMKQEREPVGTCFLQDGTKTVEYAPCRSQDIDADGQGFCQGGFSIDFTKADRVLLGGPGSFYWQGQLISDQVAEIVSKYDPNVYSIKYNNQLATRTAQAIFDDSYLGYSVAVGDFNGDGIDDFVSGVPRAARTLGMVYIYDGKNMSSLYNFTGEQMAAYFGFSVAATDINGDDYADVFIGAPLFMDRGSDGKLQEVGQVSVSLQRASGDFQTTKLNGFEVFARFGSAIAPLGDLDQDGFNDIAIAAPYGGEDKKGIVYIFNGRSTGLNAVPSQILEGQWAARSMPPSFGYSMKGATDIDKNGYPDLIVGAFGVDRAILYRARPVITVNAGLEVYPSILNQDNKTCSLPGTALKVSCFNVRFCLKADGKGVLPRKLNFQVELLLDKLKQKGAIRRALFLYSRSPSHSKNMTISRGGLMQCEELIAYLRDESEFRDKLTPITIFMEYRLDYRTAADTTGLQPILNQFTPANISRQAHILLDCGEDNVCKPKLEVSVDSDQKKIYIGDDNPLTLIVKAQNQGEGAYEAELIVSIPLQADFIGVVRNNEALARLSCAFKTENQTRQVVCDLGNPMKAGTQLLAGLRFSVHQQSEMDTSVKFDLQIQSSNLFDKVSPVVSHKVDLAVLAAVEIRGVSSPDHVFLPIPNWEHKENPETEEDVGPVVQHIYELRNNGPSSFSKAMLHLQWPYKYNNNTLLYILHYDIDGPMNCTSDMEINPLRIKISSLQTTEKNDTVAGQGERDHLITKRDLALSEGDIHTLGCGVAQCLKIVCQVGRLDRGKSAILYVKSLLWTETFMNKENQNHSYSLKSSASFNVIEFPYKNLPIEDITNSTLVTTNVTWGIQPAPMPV
Chain of recombinant human integrin αvβ6 (P18564 22-707): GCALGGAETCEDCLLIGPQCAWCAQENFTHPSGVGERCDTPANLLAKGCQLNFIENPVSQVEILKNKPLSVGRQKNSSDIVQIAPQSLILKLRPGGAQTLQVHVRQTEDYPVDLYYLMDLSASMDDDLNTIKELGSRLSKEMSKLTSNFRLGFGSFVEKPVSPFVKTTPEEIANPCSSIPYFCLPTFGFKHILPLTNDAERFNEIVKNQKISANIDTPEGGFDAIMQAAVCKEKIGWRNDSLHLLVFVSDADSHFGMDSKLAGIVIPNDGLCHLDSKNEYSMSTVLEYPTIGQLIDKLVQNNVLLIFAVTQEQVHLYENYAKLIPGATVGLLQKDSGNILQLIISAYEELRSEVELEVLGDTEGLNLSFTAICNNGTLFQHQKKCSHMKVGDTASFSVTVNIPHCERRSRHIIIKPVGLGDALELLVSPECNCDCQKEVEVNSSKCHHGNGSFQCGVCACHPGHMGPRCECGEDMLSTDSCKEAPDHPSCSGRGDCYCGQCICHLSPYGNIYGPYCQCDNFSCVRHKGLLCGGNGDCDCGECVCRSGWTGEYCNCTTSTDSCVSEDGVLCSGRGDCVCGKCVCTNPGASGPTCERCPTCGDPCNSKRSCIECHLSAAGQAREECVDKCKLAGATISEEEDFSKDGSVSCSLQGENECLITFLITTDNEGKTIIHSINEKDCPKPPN

SMILES | IC50
CC(C)(O)CN1CCCC1C(=O)N[C@@H](CCN1CC(OCCc2ccc3c(n2)NCCC3)C1)C(=O)O (stereo partly shown) [Compound 134] | 250 to 1000 nM
Cc1cc(C)n(-c2cccc(C(=O)N[C@@H](CCN3CC(CCc4ccc5c(n4)NCCC5)CC(F)(F)C3)C(=O)O)c2)n1 (stereo partly shown) [Compound 42] | 250 to 4000 nM
O=C(N[C@@H](CCN1CCC[C@@](F)(CCc2ccc3c(n2)NCCC3)C1)C(=O)O)C1CCC(F)(F)CC1 [Compound 107] | 50 nM
NCCCc1ccc(CCC2CC3CCC2N3CC[C@H](NC(=O)c2cc(F)cc(C(F)(F)F)c2)C(=O)O)nc1 (stereo partly shown) [Compound 141] | < 50 nM
Cn1ncc2ccc(C(=O)N[C@@H](CCN3CCC[C@@](F)(CCc4ccc5c(n4)NCCC5)C3)C(=O)O)cc21 [Compound 106] | 50 nM
O=C(O)[C@H](CCN1CC(CCc2ccc3c(n2)NCCC3)C1)NC(=O)[C@@H]1CCCN1Cc1ccccc1 [Compound 143] | > 1000 nM
O=C(N[C@@H](CCN1CCC(NCc2ccc3c(n2)NCCC3)CC1)C(=O)O)C1CCC(F)(F)CC1 [Compound 34] | > 1000 nM
